Results on one compound are retold here after patent publication US12133921B2, “Capsule filling composition, method of producing capsule formulation with the use of capsule filling composition, and capsule formulation” (SHIN-ETSU CHEMICAL CO., LTD., priority 2019, dated 2024).

The nature of the series: Compressibility index of the active ingredient. Particulars: 2,000 mg compressed at 0.5 N, remaining weight after three droppings from 1 cm, n=5. Type of series: physicochemical. On the procedure: The active ingredient weighing 2,000 mg was introduced into a polycarbonate tube (a hollow cylindrical form with an inner diameter of 12.5 mm and a height of 52.0 mm; “polycarbonate spacer (hollow) CPC (CPC-1252); manufactured by Hirosugi Keiki Co., Ltd.) which was left to stand on a stainless steel bat. Next, by using a tension and compression testing machine (“SDT—503 NB”; manufactured by Imada Seisakusho Co., Ltd.), the active ingredient within the polycarbonate tube was compressed by a cylindrical tool having a contact surface of 11.28 mmΦ in diameter to prepare a compressed product (compression condition; speed: 100 mm/min., load: 0.5 N, load maintaining time: 1 sec.). […]
The lifted polycarbonate tube was released from the fingers, and dropped down. After repeating this procedure three times, the remaining weight of the polycarbonate tube containing the compressed product of the active ingredient was measured as a weight after test.
The amount of powder flowing out from the polycarbonate tube was determined by subtracting the weight after test from the weight before test. Furthermore, the remaining weight of the compressed product of the active ingredient was determined by subtracting the amount of powder flowing out from the polycarbonate tube from the weight before test. […]

On to `Cc1cc2nc3c(=O)[nH]c(=O)nc-3n(C[C@H](O)[C@H](O)[C@H](O)CO)c2cc1C` [vitamin B2, riboflavin], for which the compressibility index amounted to 5%.
